Patent US12655116B2, “Substituted isophthalic acid diamides” (Bayer Aktiengesellschaft, priority 2020, dated 2026)

What was measured:
STEME [1] = assay: Post-emergence herbicidal action against STEME; type: in vivo, Stellaria media; conditions: Stellaria media, 504 h, 20 g/ha
Method in brief: (§1)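 Spray, one-leaf stage: WP or EC compound in water, 600–800 l/ha, 0.2% wetting agent. Plants held about 3 weeks in the greenhouse, then visually rated in percent of kill compared with untreated controls.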

VIOTR [2] = assay: Pre-emergence herbicidal action against VIOTR; type: in vivo, Viola tricolor; conditions: Viola tricolor, 504 h, dosage 80 g/ha
Method in brief: (§2)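 Pre-emergence soil-surface spray of formulated compound (WP or EC; 600 to 800 l/ha; 0.2% wetting agent) over seeds sown in sandy loam. After 3 weeks under greenhouse conditions, damage is estimated visually in percent against untreated plants.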

AMARE [3] = assay: Post-emergence herbicidal action against AMARE; type: in vivo, Amaranthus retroflexus; conditions: Amaranthus retroflexus, 504 h, 20 g/ha, visual assessment about 3 weeks after treatment, 100% = plants have died, 0% = like control plants
Method in brief: as §1

DIGSA [4] = assay: Pre-emergence herbicidal action against DIGSA; type: in vivo, Digitaria sanguinalis; conditions: Digitaria sanguinalis, 504 h
Method in brief: as §2

VIOTR [5] = assay: Post-emergence herbicidal action against VIOTR; type: in vivo, Viola tricolor; conditions: Viola tricolor, 504 h
Method in brief: as §1

MATIN = assay: Pre-emergence herbicidal action against MATIN; type: in vivo, Matricaria inodora; conditions: Tripleurospermum inodorum, 504 h
Method in brief: as §2

ABUTH [6] = assay: Post-emergence herbicidal action against ABUTH; type: in vivo, Abutilon theophrasti; conditions: Abutilon theophrasti, 504 h, visual assessment about 3 weeks after treatment vs untreated controls
Method in brief: as §1

LOLRI = assay: Post-emergence herbicidal action against LOLRI; type: in vivo, Lolium rigidum; conditions: Lolium rigidum, 504 h, dosage 20 g/ha
Method: Seeds of monocotyledonous and dicotyledonous weed and crop plants are laid out in sandy loam soil in wood-fiber pots, covered with soil and cultivated in a greenhouse under good growth conditions. 2 to 3 weeks after sowing, the test plants are treated at the one-leaf stage. The compounds of the invention, formulated in the form of wettable powders (WP) or as emulsion concentrates (EC), are then sprayed onto the green parts of the plants in the form of an aqueous suspension or emulsion at a water application rate equivalent to 600 to 800 l/ha, with addition of 0.2% wetting agent. After the test plants have been left to stand in the greenhouse under optimal growth conditions for about 3 weeks, the action of the preparations is assessed visually in comparison to untreated controls (herbicidal action in percent (%): 100% activity=the plants have died, 0% activity=like control plants). […] The tables below illustrate, in an illustrative manner, the post-emergence herbicidal action of the compounds of the invention, the herbicidal activity being stated in percent.

SETVI [7] = assay: Post-emergence herbicidal action against SETVI; type: in vivo, Setaria viridis; conditions: Setaria viridis, 504 h
Method in brief: as §1

PHBPU [8] = assay: Pre-emergence herbicidal action against PHBPU; type: in vivo, Pharbitis purpurea; conditions: Ipomoea purpurea, 504 h, dosage 80 g/ha
Method in brief: as §2

STEME [9] = assay: Pre-emergence herbicidal action against STEME; type: in vivo, Stellaria media; conditions: Stellaria media, 504 h, dosage 80 g/ha
Method in brief: as §2

VERPE [10] = assay: Pre-emergence herbicidal action against VERPE; type: in vivo, Veronica persica; conditions: Veronica persica, 504 h
Method in brief: as §2

ECHCG [11] = assay: Post-emergence herbicidal action against ECHCG; type: in vivo, Echinochloa crus-galli; conditions: Echinochloa crus-galli, 504 h, dosage 20 g/ha
Method in brief: as §1

AMARE [12] = assay: Pre-emergence herbicidal action against AMARE; type: in vivo, Amaranthus retroflexus; conditions: Amaranthus retroflexus, 504 h, scored visually after 3 weeks vs untreated controls, 100% = plants have died, 0% = like control plants
Method in brief: as §2

ABUTH [13] = assay: Pre-emergence herbicidal action against ABUTH; type: in vivo, Abutilon theophrasti; conditions: Abutilon theophrasti, 504 h
Method in brief: as §2

HORMU = assay: Pre-emergence herbicidal action against HORMU; type: in vivo, Hordeum murinum; conditions: Hordeum murinum, 504 h; 80 g/ha, pre-emergence
Method in brief: as §2

VERPE [14] = assay: Post-emergence herbicidal action against VERPE; type: in vivo, Veronica persica; conditions: Veronica persica, 504 h, 20 g/ha
Method in brief: as §1

DIGSA [15] = assay: Post-emergence herbicidal action against DIGSA; type: in vivo, Digitaria sanguinalis; conditions: Digitaria sanguinalis, 504 h, 20 g/ha
Method in brief: as §1

ALOMY [16] = assay: Post-emergence herbicidal action against ALOMY; type: in vivo, Alopecurus myosuroides; conditions: Alopecurus myosuroides, 504 h, dosage 20 g/ha, visual assessment about 3 weeks after treatment vs untreated controls
Method in brief: as §1

ECHCG [17] = assay: Pre-emergence herbicidal action against ECHCG; type: in vivo, Echinochloa crus-galli; conditions: Echinochloa crus-galli, 504 h, 80 g/ha
Method in brief: as §2

SETVI [18] = assay: Pre-emergence herbicidal action against SETVI; type: in vivo, Setaria viridis; conditions: Setaria viridis, 504 h
Method in brief: as §2

PHBPU [19] = assay: Post-emergence herbicidal action against PHBPU; type: in vivo, Pharbitis purpurea; conditions: Ipomoea purpurea, 504 h, dosage 20 g/ha
Method in brief: as §1

AVEFA = assay: Pre-emergence herbicidal action against AVEFA; type: in vivo, Avena fatua; conditions: Avena fatua, 504 h; 80 g/ha, pre-emergence
Method in brief: as §2

ALOMY [20] = assay: Pre-emergence herbicidal action against ALOMY; type: in vivo, Alopecurus myosuroides; conditions: Alopecurus myosuroides, 504 h; 80 g/ha, pre-emergence, scored visually after 3 weeks vs untreated controls (100% = plants have died, 0% = like control plants)
Method in brief: as §2

`Cn1nnnc1NC(=O)c1ccc(C(F)(F)F)c(C(=O)NC2CC2)c1Br` [Example 1-209] was tested, and the pest or weed control at 20 g/ha (STEME [1]) was 90%, the pest or weed control at 80 g/ha (VIOTR [2]) was 100% and the pest or weed control at 20 g/ha (AMARE [3]) was 100%. The pest or weed control at 20 g/ha (DIGSA [4]; dosage 20 g/ha) was 100%, the pest or weed control at 80 g/ha (DIGSA [4]; dosage 80 g/ha) was 100% and the pest or weed control at 5 g/ha (VIOTR [5]; 5 g/ha) was 100%. It also gave a pest or weed control at 20 g/ha (VIOTR [5]; 20 g/ha) of 100%, a pest or weed control at 20 g/ha (MATIN; dosage 20 g/ha) of 80% and a pest or weed control at 80 g/ha (MATIN; dosage 80 g/ha) of 100%. The pest or weed control at 5 g/ha (ABUTH [6]; dosage 5 g/ha) was 90%, the pest or weed control at 20 g/ha (ABUTH [6]; dosage 20 g/ha) was 100% and the pest or weed control at 20 g/ha (LOLRI) was 80%. For the same compound, the pest or weed control at 5 g/ha (SETVI [7]; dosage 5 g/ha) was 100%, the pest or weed control at 20 g/ha (SETVI [7]; dosage 20 g/ha) was 100% and the pest or weed control at 80 g/ha (PHBPU [8]) was 80%. It also gave a pest or weed control at 80 g/ha (STEME [9]) of 90%, a pest or weed control at 20 g/ha (VERPE [10]; dosage 20 g/ha) of 90% and a pest or weed control at 80 g/ha (VERPE [10]; dosage 80 g/ha) of 100%. The pest or weed control at 20 g/ha (ECHCG [11]) was 90%, the pest or weed control at 20 g/ha (AMARE [12]; 20 g/ha) was 100% and the pest or weed control at 80 g/ha (AMARE [12]; 80 g/ha) was 100%. The pest or weed control at 80 g/ha (ABUTH [13]; 80 g/ha, scored visually after 3 weeks vs untreated controls (100% = plants have died, 0% = like control plants)) was 100%, the pest or weed control at 20 g/ha (ABUTH [13]; dosage 20 g/ha, scored visually after 3 weeks vs untreated controls, 100% = plants have died, 0% = like control plants, read-out: Pre-emergence action against ABUTH (herbicidal activity in percent)) was 100% and the pest or weed control at 80 g/ha (HORMU) was 80%. It also gave a pest or weed control at 20 g/ha (VERPE [14]) of 80%, a pest or weed control at 20 g/ha (DIGSA [15]) of 90% and a pest or weed control at 20 g/ha (ALOMY [16]) of 80%. The pest or weed control at 80 g/ha (ECHCG [17]) was 90%, the pest or weed control at 20 g/ha (SETVI [18]; dosage 20 g/ha) was 90% and the pest or weed control at 80 g/ha (SETVI [18]; dosage 80 g/ha) was 100%. The pest or weed control at 20 g/ha (PHBPU [19]) was 90%, the pest or weed control at 80 g/ha (AVEFA) was 100% and the pest or weed control at 80 g/ha (ALOMY [20]) was 80%.
